Data published in ChEMBL document CHEMBL5723583, “Data for DCP probe BAY-9835” (2024).

Assays:
[1] = molecular target: Nitric oxide synthase, inducible (Homo sapiens) (UniProt P35228); test: Inhibition of Nitric Oxide Synthetase, Inducible (iNOS) at 10.0 µM in the Eurofins-Panlabs selectivity screen; settings: Mus musculus; Compound concentration 10.0 uM
[2] = molecular target: Beta-1 adrenergic receptor (Homo sapiens) (UniProt P08588); test: Inhibition of Adrenergic beta1 at 10.0 µM in the Eurofins-Panlabs selectivity screen; settings: Compound concentration 10.0 uM
[3] = molecular target: Muscarinic acetylcholine receptor M3 (Homo sapiens) (UniProt P20309); test: Inhibition of Muscarinic M3 at 10.0 µM in the Eurofins-Panlabs selectivity screen; settings: Compound concentration 10.0 uM
[4] = molecular target: Thromboxane-A synthase (Homo sapiens) (UniProt P24557); test: Inhibition of Thromboxane Synthase at 10.0 µM in the Eurofins-Panlabs selectivity screen; settings: Compound concentration 10.0 uM
Sequence of Thromboxane-A synthase (Homo sapiens) (P24557 whole entry): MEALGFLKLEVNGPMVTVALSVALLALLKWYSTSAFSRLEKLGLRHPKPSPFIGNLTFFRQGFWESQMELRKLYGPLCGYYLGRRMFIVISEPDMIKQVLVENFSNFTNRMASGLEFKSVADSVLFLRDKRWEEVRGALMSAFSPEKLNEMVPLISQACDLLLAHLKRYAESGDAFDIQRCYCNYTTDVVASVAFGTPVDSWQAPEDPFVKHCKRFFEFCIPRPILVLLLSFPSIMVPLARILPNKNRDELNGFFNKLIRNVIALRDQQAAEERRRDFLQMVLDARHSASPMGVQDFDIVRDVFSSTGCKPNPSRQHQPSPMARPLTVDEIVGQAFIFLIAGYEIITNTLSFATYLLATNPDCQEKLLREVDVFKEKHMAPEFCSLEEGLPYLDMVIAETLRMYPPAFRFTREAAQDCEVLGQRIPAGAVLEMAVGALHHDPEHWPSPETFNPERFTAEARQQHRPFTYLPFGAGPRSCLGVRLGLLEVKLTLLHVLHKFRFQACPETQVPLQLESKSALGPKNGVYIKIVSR

[5] = molecular target: A disintegrin and metalloproteinase with thrombospondin motifs 5 (Homo sapiens, UniProt Q9UNA0); test: IC50 of hADAMTS5 at 1.0 µM in the Bayer in-house protease panel
[6] = molecular target: Glutamate receptor ionotropic, kainate (Rattus norvegicus) (UniProt P22756+Q01812+P42260+P42264+Q63273); test: Inhibition of Glutamate, Kainate at 10.0 µM in the Eurofins-Panlabs selectivity screen; format: protein-complex assay; settings: Compound concentration 10.0 uM
[7] = molecular target: Muscarinic acetylcholine receptor M1 (Homo sapiens) (UniProt P11229); test: Inhibition of Muscarinic M1 at 10.0 µM in the Eurofins-Panlabs selectivity screen; settings: Compound concentration 10.0 uM
[8] = molecular target: Monoamine oxidase B (MAO-B) (Homo sapiens, UniProt P27338); test: Inhibition of Monoamine Oxidase MAO-B at 10.0 µM in the Eurofins-Panlabs selectivity screen; settings: compound concentration 10 uM
[9] = molecular target: Motilin receptor (Homo sapiens) (UniProt O43193); test: Inhibition of Motilin at 10.0 µM in the Eurofins-Panlabs selectivity screen; settings: Compound concentration 10.0 uM
[10] = molecular target: Adenosine receptor A1 (Homo sapiens) (UniProt P30542); test: Inhibition of Adenosine A1 at 10.0 µM in the Eurofins-Panlabs selectivity screen; settings: Compound concentration 10.0 uM
[11] = molecular target: Sodium-dependent noradrenaline transporter (Homo sapiens) (UniProt P23975); test: Inhibition of Transporter, Norepinephrine (NET) at 10.0 µM in the Eurofins-Panlabs selectivity screen; settings: Compound concentration 10.0 uM
[12] = molecular target: Insulin receptor (Homo sapiens) (UniProt P06213); test: Inhibition of Insulin at 10.0 µM in the Eurofins-Panlabs selectivity screen; settings: Rattus norvegicus; Compound concentration 10.0 uM
[13] = molecular target: Monoamine oxidase A (MAO-A) (Homo sapiens, UniProt P21397); test: Inhibition of Monoamine Oxidase MAO-A at 10.0 µM in the Eurofins-Panlabs selectivity screen; settings: compound concentration 10 uM
[14] = molecular target: Type-2 angiotensin II receptor (Homo sapiens) (UniProt P50052); test: Inhibition of Angiotensin AT2 at 10.0 µM in the Eurofins-Panlabs selectivity screen; settings: Compound concentration 10.0 uM
Sequence of Type-2 angiotensin II receptor (Homo sapiens) (P50052 whole entry): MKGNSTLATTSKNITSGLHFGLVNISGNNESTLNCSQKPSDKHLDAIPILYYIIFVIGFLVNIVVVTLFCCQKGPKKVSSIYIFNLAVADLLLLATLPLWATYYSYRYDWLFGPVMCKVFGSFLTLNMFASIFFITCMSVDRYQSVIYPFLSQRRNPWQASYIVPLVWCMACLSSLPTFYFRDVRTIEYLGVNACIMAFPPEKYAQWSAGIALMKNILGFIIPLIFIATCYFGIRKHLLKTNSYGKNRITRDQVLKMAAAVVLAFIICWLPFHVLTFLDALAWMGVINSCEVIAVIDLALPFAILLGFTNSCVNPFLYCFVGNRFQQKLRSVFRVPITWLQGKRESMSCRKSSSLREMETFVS

Cathepsin S = Cathepsin S (Homo sapiens, UniProt P25774); test: IC50 of Cathepsin S at 1.0 µM in the Bayer in-house protease panel
Sequence of Cathepsin S (P25774 whole entry, the tested form may be a part): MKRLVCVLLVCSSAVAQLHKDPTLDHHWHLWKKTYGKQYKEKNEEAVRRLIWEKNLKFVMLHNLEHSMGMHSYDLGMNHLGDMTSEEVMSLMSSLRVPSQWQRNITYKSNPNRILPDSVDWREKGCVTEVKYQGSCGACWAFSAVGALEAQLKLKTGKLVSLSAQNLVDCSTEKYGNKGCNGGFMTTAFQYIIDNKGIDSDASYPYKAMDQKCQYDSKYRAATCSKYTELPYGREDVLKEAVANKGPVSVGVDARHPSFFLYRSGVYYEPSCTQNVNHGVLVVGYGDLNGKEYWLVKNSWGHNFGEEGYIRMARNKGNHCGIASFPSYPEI

[15] = molecular target: Disintegrin and metalloproteinase domain-containing protein 17 (Homo sapiens, UniProt P78536); test: IC50 of hADAM17 at 1.0 µM in the Bayer in-house protease panel
[16] = molecular target: Muscarinic acetylcholine receptor M2 (Homo sapiens) (UniProt P08172); test: Inhibition of Muscarinic M2 at 10.0 µM in the Eurofins-Panlabs selectivity screen; settings: Compound concentration 10.0 uM
[17] = molecular target: B1 bradykinin receptor (Homo sapiens) (UniProt P46663); test: Inhibition of Bradykinin B1 at 10.0 µM in the Eurofins-Panlabs selectivity screen; settings: Compound concentration 10.0 uM
Sequence of B1 bradykinin receptor (Homo sapiens) (P46663 whole entry): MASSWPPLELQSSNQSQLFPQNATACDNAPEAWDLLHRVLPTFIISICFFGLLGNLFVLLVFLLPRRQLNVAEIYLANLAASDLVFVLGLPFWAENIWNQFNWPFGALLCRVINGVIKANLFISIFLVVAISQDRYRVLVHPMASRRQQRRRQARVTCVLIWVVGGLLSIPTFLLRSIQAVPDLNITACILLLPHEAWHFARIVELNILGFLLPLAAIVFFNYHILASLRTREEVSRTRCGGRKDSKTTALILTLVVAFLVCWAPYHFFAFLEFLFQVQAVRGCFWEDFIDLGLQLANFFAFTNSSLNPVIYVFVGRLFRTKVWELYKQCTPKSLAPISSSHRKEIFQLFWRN

[18] = molecular target: Beta-2 adrenergic receptor (Homo sapiens) (UniProt P07550); test: Inhibition of Adrenergic beta2 at 10.0 µM in the Eurofins-Panlabs selectivity screen; settings: Compound concentration 10.0 uM
Caspase-3 = Caspase-3 (Homo sapiens, UniProt P42574); test: IC50 of Caspase 3 at 1.0 µM in the Bayer in-house protease panel
[19] = molecular target: Polyunsaturated fatty acid lipoxygenase ALOX15 (Homo sapiens) (UniProt P16050); test: Inhibition of Lipoxygenase 15-LO at 10.0 µM in the Eurofins-Panlabs selectivity screen; settings: Compound concentration 10.0 uM
Sequence of Polyunsaturated fatty acid lipoxygenase ALOX15 (Homo sapiens) (P16050 whole entry): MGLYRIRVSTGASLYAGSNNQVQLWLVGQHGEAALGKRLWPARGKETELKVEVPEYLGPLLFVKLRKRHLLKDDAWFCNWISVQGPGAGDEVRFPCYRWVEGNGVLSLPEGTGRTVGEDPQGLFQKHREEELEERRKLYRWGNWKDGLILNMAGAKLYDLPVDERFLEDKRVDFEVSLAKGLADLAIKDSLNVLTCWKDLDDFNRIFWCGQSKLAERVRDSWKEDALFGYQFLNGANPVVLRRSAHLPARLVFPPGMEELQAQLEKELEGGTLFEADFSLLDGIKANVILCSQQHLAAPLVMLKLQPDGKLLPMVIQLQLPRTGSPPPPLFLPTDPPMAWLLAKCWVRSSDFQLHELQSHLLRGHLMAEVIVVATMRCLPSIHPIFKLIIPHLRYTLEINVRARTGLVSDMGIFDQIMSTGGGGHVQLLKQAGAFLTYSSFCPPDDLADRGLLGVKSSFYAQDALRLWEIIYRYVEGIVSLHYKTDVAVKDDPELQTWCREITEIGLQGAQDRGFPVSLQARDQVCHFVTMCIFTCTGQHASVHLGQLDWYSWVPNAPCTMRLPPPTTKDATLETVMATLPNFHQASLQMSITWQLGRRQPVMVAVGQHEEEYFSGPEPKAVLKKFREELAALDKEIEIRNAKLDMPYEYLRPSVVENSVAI

[20] = molecular target: Phosphodiesterase 3 (Homo sapiens) (UniProt Q14432+Q13370); test: Inhibition of Phosphodiesterase PDE3 at 10.0 µM in the Eurofins-Panlabs selectivity screen; format: protein assay; settings: Compound concentration 10.0 uM
[21] = molecular target: Growth hormone secretagogue receptor type 1 (Homo sapiens) (UniProt Q92847); test: Inhibition of Growth Hormone Secretagogue (GHS, Ghrelin) at 10.0 µM in the Eurofins-Panlabs selectivity screen; settings: Compound concentration 10.0 uM
[22] = molecular target: Disintegrin and metalloproteinase domain-containing protein 10 (Homo sapiens, UniProt O14672); test: IC50 of hADAM10 at 1.0 µM in the Bayer in-house protease panel
Sequence of Disintegrin and metalloproteinase domain-containing protein 10 (O14672 whole entry, the tested form may be a part): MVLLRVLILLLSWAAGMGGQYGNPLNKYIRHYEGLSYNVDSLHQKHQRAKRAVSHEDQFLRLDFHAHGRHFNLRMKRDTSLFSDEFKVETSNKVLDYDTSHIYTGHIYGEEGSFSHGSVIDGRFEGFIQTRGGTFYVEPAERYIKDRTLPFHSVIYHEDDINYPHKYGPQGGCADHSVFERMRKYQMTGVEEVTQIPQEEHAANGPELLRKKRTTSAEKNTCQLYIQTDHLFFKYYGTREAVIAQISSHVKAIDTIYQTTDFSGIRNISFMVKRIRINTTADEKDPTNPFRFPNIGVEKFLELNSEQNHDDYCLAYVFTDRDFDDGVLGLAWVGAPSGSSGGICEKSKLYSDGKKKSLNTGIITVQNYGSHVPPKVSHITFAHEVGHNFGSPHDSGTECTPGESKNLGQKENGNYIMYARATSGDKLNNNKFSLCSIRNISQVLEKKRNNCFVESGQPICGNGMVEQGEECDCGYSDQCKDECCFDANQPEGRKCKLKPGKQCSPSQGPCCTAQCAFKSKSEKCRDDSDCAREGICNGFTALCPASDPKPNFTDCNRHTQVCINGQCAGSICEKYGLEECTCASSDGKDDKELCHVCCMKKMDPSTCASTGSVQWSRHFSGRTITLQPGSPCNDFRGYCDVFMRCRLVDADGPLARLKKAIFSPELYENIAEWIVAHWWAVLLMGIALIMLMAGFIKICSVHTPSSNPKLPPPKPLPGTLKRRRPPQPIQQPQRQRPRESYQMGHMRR

[23] = molecular target: Alpha-2A adrenergic receptor (Homo sapiens) (UniProt P08913); test: Inhibition of Adrenergic alpha2A at 10.0 µM in the Eurofins-Panlabs selectivity screen; settings: Compound concentration 10.0 uM
[24] = molecular target: Disintegrin and metalloproteinase domain-containing protein 8 (Homo sapiens, UniProt P78325); test: IC50 of hADAM8 at 1.0 µM in the Bayer in-house protease panel
[25] = molecular target: Cannabinoid receptor 1 (Homo sapiens) (UniProt P21554); test: Inhibition of Cannabinoid CB1 at 10.0 µM in the Eurofins-Panlabs selectivity screen; settings: Compound concentration 10.0 uM
[26] = molecular target: 72 kDa type IV collagenase (Homo sapiens, UniProt P08253); test: IC50 of hMMP2 at 1.0 µM in the Bayer in-house protease panel
[27] = molecular target: Matrix metalloproteinase-15 (Homo sapiens, UniProt P51511); test: IC50 of hMMP15 at 1.0 µM in the Bayer in-house protease panel
[28] = molecular target: Nitric oxide synthase 1 (Homo sapiens) (UniProt P29475); test: Inhibition of Nitric Oxide Synthase, Neuronal (nNOS) at 10.0 µM in the Eurofins-Panlabs selectivity screen; settings: Rattus norvegicus; Compound concentration 10.0 uM
Sequence of Nitric oxide synthase 1 (Homo sapiens) (P29475 whole entry): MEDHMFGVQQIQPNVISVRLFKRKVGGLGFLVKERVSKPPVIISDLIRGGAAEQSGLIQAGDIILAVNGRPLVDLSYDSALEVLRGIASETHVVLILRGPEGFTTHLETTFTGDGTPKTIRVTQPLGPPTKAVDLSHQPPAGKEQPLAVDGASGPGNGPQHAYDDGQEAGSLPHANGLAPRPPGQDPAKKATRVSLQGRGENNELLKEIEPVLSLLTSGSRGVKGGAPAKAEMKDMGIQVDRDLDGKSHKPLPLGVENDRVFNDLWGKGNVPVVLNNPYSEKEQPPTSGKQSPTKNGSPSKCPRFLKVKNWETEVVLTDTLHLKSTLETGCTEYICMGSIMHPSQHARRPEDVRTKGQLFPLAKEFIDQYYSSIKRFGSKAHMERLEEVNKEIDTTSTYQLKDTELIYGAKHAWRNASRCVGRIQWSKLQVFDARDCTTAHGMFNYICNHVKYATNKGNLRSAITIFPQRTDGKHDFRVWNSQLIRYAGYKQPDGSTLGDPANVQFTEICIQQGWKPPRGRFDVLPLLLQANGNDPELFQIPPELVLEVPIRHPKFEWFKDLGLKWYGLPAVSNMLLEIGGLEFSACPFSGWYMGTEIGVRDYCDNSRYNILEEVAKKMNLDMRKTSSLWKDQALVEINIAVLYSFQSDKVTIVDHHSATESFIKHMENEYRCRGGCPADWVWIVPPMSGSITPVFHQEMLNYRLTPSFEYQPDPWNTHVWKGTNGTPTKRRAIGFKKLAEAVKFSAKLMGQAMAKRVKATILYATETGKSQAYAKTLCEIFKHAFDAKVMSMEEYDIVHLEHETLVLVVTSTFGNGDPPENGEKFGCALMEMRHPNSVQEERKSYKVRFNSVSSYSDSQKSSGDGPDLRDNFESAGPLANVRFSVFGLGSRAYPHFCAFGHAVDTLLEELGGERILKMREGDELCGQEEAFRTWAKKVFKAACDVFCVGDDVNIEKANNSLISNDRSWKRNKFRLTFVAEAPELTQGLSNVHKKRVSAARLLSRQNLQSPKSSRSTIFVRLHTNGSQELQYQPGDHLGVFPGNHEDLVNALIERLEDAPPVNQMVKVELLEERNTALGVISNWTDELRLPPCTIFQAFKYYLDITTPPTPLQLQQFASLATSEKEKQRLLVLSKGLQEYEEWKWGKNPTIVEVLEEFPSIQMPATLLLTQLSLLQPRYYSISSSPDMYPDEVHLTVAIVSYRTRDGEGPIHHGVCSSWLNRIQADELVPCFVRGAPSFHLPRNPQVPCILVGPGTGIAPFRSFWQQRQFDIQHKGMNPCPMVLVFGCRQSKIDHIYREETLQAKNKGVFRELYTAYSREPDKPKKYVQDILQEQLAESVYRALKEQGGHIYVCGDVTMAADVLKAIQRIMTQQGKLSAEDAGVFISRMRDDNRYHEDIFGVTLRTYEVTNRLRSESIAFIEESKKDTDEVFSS

[29] = molecular target: Glutamate NMDA receptor (Rattus norvegicus) (UniProt P35439+Q00959+Q00960+Q00961+Q62645+Q8VHN2+Q9R1M7); test: Inhibition of Glutamate, NMDA, Agonism at 10.0 µM in the Eurofins-Panlabs selectivity screen; format: protein-complex assay; settings: Compound concentration 10.0 uM
[30] = molecular target: 5-hydroxytryptamine receptor 2B (Homo sapiens) (UniProt P41595); test: Inhibition of Serotonin (5-Hydroxytryptamine) 5-HT2B at 10.0 µM in the Eurofins-Panlabs selectivity screen; settings: Compound concentration 10.0 uM
[31] = molecular target: Beta-3 adrenergic receptor (Homo sapiens) (UniProt P13945); test: Inhibition of Adrenergic beta3 at 10.0 µM in the Eurofins-Panlabs selectivity screen; settings: Compound concentration 10.0 uM
Sequence of Beta-3 adrenergic receptor (Homo sapiens) (P13945 whole entry, looked up): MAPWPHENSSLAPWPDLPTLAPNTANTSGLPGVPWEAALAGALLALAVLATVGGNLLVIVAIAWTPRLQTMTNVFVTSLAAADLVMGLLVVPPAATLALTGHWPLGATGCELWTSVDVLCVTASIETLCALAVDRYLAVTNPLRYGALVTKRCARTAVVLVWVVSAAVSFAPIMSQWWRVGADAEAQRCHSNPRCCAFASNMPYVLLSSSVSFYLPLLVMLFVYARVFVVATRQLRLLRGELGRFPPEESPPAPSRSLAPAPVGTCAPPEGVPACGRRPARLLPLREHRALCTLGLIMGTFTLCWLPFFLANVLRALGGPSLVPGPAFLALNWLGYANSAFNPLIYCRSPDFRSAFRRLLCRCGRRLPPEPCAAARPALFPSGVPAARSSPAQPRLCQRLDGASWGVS

[32] = molecular target: cGMP-specific 3',5'-cyclic phosphodiesterase (Homo sapiens) (UniProt O76074); test: Inhibition of Phosphodiesterase PDE5 at 10.0 µM in the Eurofins-Panlabs selectivity screen; settings: Compound concentration 10.0 uM
[33] = molecular target: Sodium/potassium-transporting ATPase (Sus scrofa) (UniProt P05027+P05024+D2WKD8+D2WKD7+F1ST41); test: Inhibition of ATPase, Na+/K+, Heart, Pig at 10.0 µM in the Eurofins-Panlabs selectivity screen; format: protein-complex assay; settings: Compound concentration 10.0 uM

## Cn1nccc1[C@]1(CNC(=O)c2ccc(F)c(F)c2-c2ccc(C(F)(F)F)cc2)NC(=O)NC1=O
[1]
  inhibition: 0%
[2]
  inhibition: -8%
[3]
  inhibition: 9%
[4]
  inhibition: 11%
[5]
  IC50: 9.92 µM
[6]
  inhibition: 12%
[7]
  inhibition: -6%
[8]
  inhibition at 10 µM: 10%
[9]
  inhibition: 3%
[10]
  inhibition: -4%
[11]
  inhibition: 6%
[12]
  inhibition: -8%
[13]
  inhibition at 10 µM: 0%
[14]
  inhibition: 0%
Cathepsin S
  IC50: > 100 µM
[15]
  IC50: 5.77 µM
[16]
  inhibition: 1%
[17]
  inhibition: 1%
[18]
  inhibition: -9%
Caspase-3
  IC50: > 100 µM
[19]
  inhibition: -6%
[20]
  inhibition: 11%
[21]
  inhibition: 6%
[22]
  IC50: 32.8 µM
[23]
  inhibition: -3%
[24]
  IC50: 2.25 µM
[25]
  inhibition: -3%
[26]
  IC50: > 100 µM
[27]
  IC50: 78.5 µM
[28]
  inhibition: 0%
[29]
  inhibition: 1%
[30]
  inhibition: -1%
[31]
  inhibition: -3%
[32]
  inhibition: -5%
[33]
  inhibition: -5%
